Columns and labels:
[1] = test system: MCF7 breast carcinoma cells; assay: MTT proliferation assay, MCF7 cells; format: cell-based; conditions: Homo sapiens, PABA 0.1 mg/ml 3 days, 5-FU 1 μM, ^90Y-huBrE-3 1 μCi, MTT after 72 hours
Protocol: Pharmaceutical grade ^90Y was buffered in 0.05M acetate and incubated with MX-DTPA-huBrE-3 and 5 mM EDTA for 1 hr, followed by purification on a Bio-Gel P6 column eluted with 1% human serum albumin to generate radiolabeled ^90Y-huBrE-3 antibody. MCF7 breast carcinoma cells were incubated with and without PABA (0.1 mg/ml) in DMEM media for 3 days, and then exposed to 5-fluorouracil (5-FU) in concentrations of 0, 0.05, 0.1, 1.0 and 5.0 μM, and concentrations of ^90Y-huBrE-3 in concentrations of 0, 1.0, 2.0, and 4 μCi. Effects on proliferation were monitored after 72 hours using a commercially available MTT assay.

[2] = test system: SKOV-3 ovarian carcinoma cells; assay: MTT proliferation assay, SKOV-3 cells; format: cell-based; conditions: topotecan 0.1 uM alone, compared to untreated controls
Protocol: Similarly, SKOV-3 ovarian carcinoma cells were incubated with or without PABA at 0.1 mg/ml in DMEM for 3 days and subsequently exposed to topotecan at concentrations of 0, 0.1, 0.5 and 2.0 μM, and ^90Y-huBrE-3 at concentrations of 0, 1.0, 2.0, and 4.0 μCi, and evaluated using an MTT assay after 72 hrs.

[3] = test system: 4T1 breast carcinoma cells; assay: Subcutaneous 4T1 breast tumor growth and lung metastasis in mice; format: in vivo
Protocol: Sub-confluent cultures of 4T1 breast carcinoma cells were harvested, washed and resuspended in PBS. Female nude mice or Balb/c strain mice were injected subcutaneously with approximately 1×10^6 tumor cells. Subcutaneous tumors were allowed to grow for 7 days, at which time the mice were treated daily by intraperitoneal injections of the following: • PABA alone (500 μg/mouse) • Radiation alone (9.0 Gy) • PABA and radiation • Docetaxel (8.0 mg/kg 1 time/week, intraperitoneal administration) • PABA and docetaxel (daily PABA and intraperitoneal administration of 8.0 mg/kg docetaxel 1 time/week) Untreated mice were used as a control. Tumor growth was gauged by weekly caliper measurements. After 28 days, the mice were sacrificed and tumor volumes were calculated by standard methods using the formula […], where V=volume, L=length and W=width.

[4] = test system: reactive oxygen species (ROS); conditions: 100 nM, 24 hours exposure; cited from earlier work
[5] = test system: stage II or stage III breast cancer; conditions: cited from earlier work
[6] = test system: hormone receptor-positive tumors; conditions: 3-year; cited from earlier work
[7] = test system: Lewis Lung carcinoma cells; assay: Chick embryo CAM tumor growth, Lewis Lung carcinoma; format: in vivo, chick embryos; conditions: PABA 100 ug/ml, TAXOL 0.01 μM, 7 days
Protocol: Lewis Lung carcinoma cells and murine 4T1 breast carcinoma cells (available from American Type Culture Collection, Rockville, MD-No. CRL-2539), were cultured in growth medium in the presence or absence of PABA (100 ug/ml) for at least 7 days. The cells were harvested, washed and resuspended in sterile PBS, followed by implantation on the chorioallantoic membranes (CAM) of 10-day old chick embryos. Embryos were allowed to incubate for 24 hours. The embryos were then treated with either a single fraction dose of ionizing radiation (5.0 Gy) or TAXOL® (0.01 μM) and allowed to incubate for 7 days.

[8] = test system: MCF-7 xenograft; conditions: subtherapeutic doses; cited from earlier work
[9] = test system: cell cycle control genes in B16F10 and G361 melanoma cells; assay: AFFYMATRIX cDNA array analysis of tumor cells; format: cell-based, human and mouse; conditions: PABA 100 μg/ml
Protocol: (§1) An AFFYMATRIX™ based cDNA array analysis was performed on tumor cells cultured in the presence or absence of PABA (100 μg/ml). A number of genes within the tumor cells were differentially expressed following PABA treatment. Experiments were conducted on genes that were consistently altered in both human and mouse tumor cells. […] To confirm these findings, the expression of CDC25A was analyzed. 4T1 breast carcinoma cells and B16F10 melanoma cells were incubated in the presence or absence of PABA. After 7 days, the RNA was isolated. The relative levels of CDC25A mRNA were examined by RT-PCR or real time PCR. FIG. 8.

[10] = test system: H460 non-small cell lung cancer cells; assay: Reactive oxygen species by FACS; format: cell-based; conditions: PABA 100 μg/ml
Protocol: H460 non-small cell lung cancer cells were grown in the presence or absence of PABA (100 μg/ml) in RPMI-1640 media containing 10% fetal calves serum, 1% penn/strep and 1% NaPyruvate. After 24 hours, a portion of the cells were exposed to 0.01 bortezomib (10 nM) for an additional 24 hours. […] The cells were monitored for ROS by the addition of dihydrothidine at a concentration of 5 μM for 15 minutes followed by fixation in ethanol and analysis by FACS. […] FIG. 10. Cells treated with PABA and bortezomib had about a 2 fold increase in ROS compared to cells treated with bortezomib alone.

[11] = test system: β1 integrin subunit; assay: Western blot, β1 integrin; format: cell-based; conditions: G361 melanoma cells; 2 weeks with PABA
Protocol: (§2) Western blot analysis was performed to confirm the altered expression of CDC25A, c-Myc and BRCA-2 at the protein level. G361 melanoma cells were cultured for 2 weeks in the presence or absence of PABA. The cells were harvested and lysed in 1.0% Triton-X-100 lysis buffer. Equal amounts of total cell lysates (50 μg/lane) were separated by 10% SDS PAGE and the proteins were transferred to nitrocellulose membranes. The membranes were probed with monoclonal antibodies P4C10 (anti-β1 integrin), 3303 (anti-BRCA-2) and Ab-3 (anti-CDC25A) or secondary antibody only. […] BRCA-2 expression was decreased in cells treated with PABA compared to cells grown in the absence of PABA. […] In similar studies, c-Myc expression in 4T1 breast carcinoma cells and G361 melanoma cells was examined by Western blot. The nitrocellulose membranes were probed with anti-c-Myc monoclonal antibody 9402 (available from Cell Signaling Technology, Beverly, Mass.) and anti-actin monoclonal antibody. […] No change in actin levels was observed.

[12] = test system: 4T1 breast cancer cells; assay: Cell cycle analysis by flow cytometry, 4T1; format: cell-based; conditions: PABA 100 μg/ml 2 weeks, untreated 10%
Protocol: (§3) G361 melanoma cells and 4T1 breast cancer cells were cultured in the presence or absence of PABA (100 μg/ml) for 2 weeks. The tumor cells were synchronized by serum starvation and cultured for 2 hours in 10% serum-containing medium. The cells were harvested, washed, fixed and stained with propidium iodide. Cell cycle analysis was performed by flow cytometry. The relative levels of untreated G361 cells (12%) and 4T1 cells (10%) in S-phase were low compared. FIG. 9. In contrast, 72% of PABA-treated G361 cells and 40% of PABA-treated 4T1 cells were in S-phase.

[13] = test system: murine 4T1 breast carcinoma cells; assay: Chick embryo CAM tumor growth, 4T1 breast carcinoma; format: in vivo, chick embryos; conditions: 4T1 on CAM; PABA 100 ug/ml; 7 days
Protocol: Lewis Lung carcinoma cells and murine 4T1 breast carcinoma cells (available from American Type Culture Collection, Rockville, MD-No. CRL-2539), were cultured in growth medium in the presence or absence of PABA (100 ug/ml) for at least 7 days. The cells were harvested, washed and resuspended in sterile PBS, followed by implantation on the chorioallantoic membranes (CAM) of 10-day old chick embryos. Embryos were allowed to incubate for 24 hours. The embryos were then treated with either a single fraction dose of ionizing radiation (5.0 Gy) or TAXOL® (0.01 μM) and allowed to incubate for 7 days. Tumor growth was assessed by measuring the wet weights of resected tumors (5-10 tumors per condition).

[14] = cited from earlier work
[15] = test system: c-Myc; assay: Western blot, c-Myc; format: cell-based
Protocol: as §2

[16] = test system: Lewis Lung carcinoma cells; conditions: cited from earlier work
[17] = test system: G361 melanoma cells; assay: Cell cycle analysis by flow cytometry, G361; format: cell-based; conditions: PABA 100 μg/ml 2 weeks, untreated 12%
Protocol: as §3

[18] = test system: BRCA-2; assay: Western blot, BRCA-2; format: cell-based; conditions: G361 melanoma cells; 2 weeks with PABA
Protocol: as §2

[19] = test system: melanogenesis; conditions: in vitro and in vivo, alone or in combination with chemotherapy or radiation therapy; cited from earlier work
[20] = test system: actin; assay: Western blot, actin; format: cell-based
Protocol: as §2
P21^CIP1 is a cell cycle dependent kinase inhibitor, which has a role in regulating the sensitivity of breast cancer cells to chemotherapeutic agents such as TAXOL®. 4T1 breast cancer cells were incubated in the presence or absence of PABA (100 μg/ml) for 7 days. The cells were washed and cell lysates were prepared. Levels of P21^CIP1 were analyzed by Western blot. […]

[21] = test system: CDC25A mRNA; assay: CDC25A mRNA by RT-PCR; format: cell-based; conditions: 7 days
Protocol: as §1

[22] = test system: P21^CIP1; assay: Western blot, P21^CIP1; format: cell-based; conditions: 4T1 breast cancer cells; PABA 100 μg/ml 7 days
Protocol: P21^CIP1 is a cell cycle dependent kinase inhibitor, which has a role in regulating the sensitivity of breast cancer cells to chemotherapeutic agents such as TAXOL®. 4T1 breast cancer cells were incubated in the presence or absence of PABA (100 μg/ml) for 7 days. The cells were washed and cell lysates were prepared. Levels of P21^CIP1 were analyzed by Western blot. Equal amounts (50 μg/lane) were separated by SDS PAGE and transferred to nitrocellulose membranes. The membranes were probed with anti-P21^CIP1 or anti-actin monoclonal antibodies.

[23] = test system: CDC25A; assay: Western blot, CDC25A; format: cell-based; conditions: G361 melanoma cells; 2 weeks with PABA
Protocol: as §2

O=c1[nH]cc(F)c(=O)[nH]1 [5-FU, 5-fluorouracil]
inhibition at 1 µM [1]: ~25%

CC[C@@]1(O)C(=O)OCc2c1cc1n(c2=O)Cc2cc3c(CN(C)C)c(O)ccc3nc2-1 [topotecan]
inhibition of proliferation [2]: minimally

CC(=O)O[C@@]12CO[C@@H]1C[C@H](O)[C@@]1(C)C(=O)[C@H](O)C3=C(C)[C@@H](OC(=O)[C@H](O)[C@@H](NC(=O)OC(C)(C)C)c4ccccc4)C[C@@](O)([C@@H](OC(=O)c4ccccc4)[C@H]21)C3(C)C [docetaxel, reference compound]
reduction of tumor growth ([3]; docetaxel 8.0 mg/kg 1 time/week i.p., PABA 500 μg/mouse daily, 28 days (FIG. 3)): ~45%

CC(C)C[C@H](NC(=O)[C@H](Cc1ccccc1)NC(=O)c1cnccn1)B(O)O [bortezomib]
induction of reactive oxygen species (ROS) [4]: actively induce reactive oxygen species (ROS)

CC/C(=C(\c1ccccc1)c1ccc(OCCN(C)C)cc1)c1ccccc1 [tamoxifen]
overall survival ([5]; at 10 years): 36% | local-regional recurrence ([5]; median follow-up of 10 years, tamoxifen 30 mg daily for 1 year): 35% | disease-free survival [6]: 67% | overall survival [6]: 85%

CC(=O)O[C@H]1C(=O)[C@@]2(C)[C@H]([C@H](OC(=O)c3ccccc3)[C@]3(O)C[C@H](OC(=O)[C@H](O)[C@@H](NC(=O)c4ccccc4)c4ccccc4)C(C)=C1C3(C)C)[C@]1(OC(C)=O)CO[C@@H]1C[C@@H]2O [TAXOL®, paclitaxel, reference compound]
effect on growth of Lewis Lung tumors [7]: neither PABA nor TAXOL® alone inhibited the growth | responses with either treatment modality alone [8]: no responses

Nc1ccc(C(=O)O)cc1 [PABA, p-amino-benzoic acid]
BRCA-2 gene expression [9]: down-regulated | H2A histone gene expression [9]: down-regulated | H2B histone gene expression [9]: down-regulated | P21^CIP1 gene expression [9]: down-regulated | effect on growth of Lewis Lung tumors [7]: neither PABA nor TAXOL® alone inhibited the growth | increase in ROS compared to untreated cells [10]: 3 fold | β1 integrin subunit expression [11]: no change | cells in S-phase [12]: 40% | effect on 4T1 breast carcinoma tumor growth [13]: Neither PABA alone nor a single fraction dose of ionizing radiation had any effect | time of peak plasma concentration after ingestion ([14]; after ingestion): about ¾ | mean half life ([14]; in vivo): about 0.5 hours | c-Myc protein expression ([15]; 4T1 cells): significant up-regulation | c-Myc protein expression ([15]; G361 cells): significant up-regulation | in vitro proliferation of Lewis Lung carcinoma cells [16]: inhibit the in vitro proliferation | cells in S-phase [17]: 72% | BRCA-2 protein expression [18]: decreased | melanogenesis [19]: inhibits melanogenesis | actin levels ([20]; 4T1 and G361 cells, c-Myc blots): No change | level of actin ([20]; 4T1 breast cancer cells, PABA 100 μg/ml 7 days): Little change | reduction of mean tumor volume compared to untreated control mice ([3]; PABA 500 μg/mouse daily i.p., radiation 9.0 Gy, 28 days (FIG. 4)): about 26% | increase in levels of CDC25A mRNA compared to untreated controls ([21]; 4T1 breast carcinoma cells): about 2 fold | increase in levels of CDC25A mRNA compared to untreated controls ([21]; B16F10 melanoma cells): about 2 fold | levels of P21^CIP1 [22]: significantly reduced | CDC25A protein expression [23]: markedly increased

From patent US7705049B2, “Methods for treating non-melanoma cancers with PABA” (New York University, priority 2004, dated 2010)
